Ends that are not written are not given here. * marks the point of attachment. For = O=C*
Legend:
[1] = test system: human neutrophils; parameters: method as in number not given; settings: ref number not given; cited from earlier work
[2] = test system: Gram-negative; settings: ref number not given; cited from earlier work
Text: The present study sheds more light on the multiple biological activities of BacSp222 and further makes the image of this peptide even more complex.

[3] = test system: proenzyme Factor C from amebocyte lysate; assay: Residual LPS activity, amebocyte lysate test (Pierce Chromogenic Endotoxin Quant Kit); format: biochemical; settings: 4 μg BacSp222 preincubated with 3 pg LPS O111:B4 standard, 15 min, 37 °C, 60 μL PBS; 405 nm; mean n = 3
Method: The separate and independent assay used to determine the reduction of the LPS biological potential after incubation with BacSp222 was a test. Briefly, this approach utilizes the ability of endotoxin to activate a proenzyme Factor C from amebocyte lysate and allows for spectrophotometric measurement of the released active enzyme using a chromogenic synthetic peptide substrate. Due to high specificity and sensitivity, this assay is widely used to detect trace amounts of LPS. As presented in Figure , preincubation of LPS with a large excess of BacSp222 reduced LPS activity by ca. 50%.
The residual biological activity of LPS after preincubation with BacSp222 was evaluated by using a commercial assay kit. The reaction was performed for 4 μg of BacSp222, which was preincubated with 3 pg of LPS O111:B4 standard for 15 min at 37 °C in a final volume of 60 μL of PBS without Ca^2+ and Mg^2+. Simultaneously and independently, the same quantity of BacSp222 and LPS as above was preincubated separately as controls. After preincubation, the residual biological activity of endotoxin in all samples was determined using a spectrophotometric Pierce Chromogenic Endotoxin Quant Kit (Thermo, Waltham, MA, USA). The absorbance was measured at 405 nm using a microplate reader Synergy H1 Hybrid plate reader controlled by Gene5 version 2.00.18 software (BIOTEK Instruments, Winooski, VT, USA).

[4] = biological target: T1, TLR4 receptor (Homo sapiens, UniProt O00206+Q9Y6Y9); assay: HEK-Blue hTLR4 stimulation, SEAP reporter; format: cell-based; settings: HEK-Blue hTLR4, BacSp222 0.016 to 2 μM without LPS, 17 h
T1 construct: host or cells: HEK-Blue hTLR4 (HEK293 reporter cells)
T1 sequence (O00206 24-839): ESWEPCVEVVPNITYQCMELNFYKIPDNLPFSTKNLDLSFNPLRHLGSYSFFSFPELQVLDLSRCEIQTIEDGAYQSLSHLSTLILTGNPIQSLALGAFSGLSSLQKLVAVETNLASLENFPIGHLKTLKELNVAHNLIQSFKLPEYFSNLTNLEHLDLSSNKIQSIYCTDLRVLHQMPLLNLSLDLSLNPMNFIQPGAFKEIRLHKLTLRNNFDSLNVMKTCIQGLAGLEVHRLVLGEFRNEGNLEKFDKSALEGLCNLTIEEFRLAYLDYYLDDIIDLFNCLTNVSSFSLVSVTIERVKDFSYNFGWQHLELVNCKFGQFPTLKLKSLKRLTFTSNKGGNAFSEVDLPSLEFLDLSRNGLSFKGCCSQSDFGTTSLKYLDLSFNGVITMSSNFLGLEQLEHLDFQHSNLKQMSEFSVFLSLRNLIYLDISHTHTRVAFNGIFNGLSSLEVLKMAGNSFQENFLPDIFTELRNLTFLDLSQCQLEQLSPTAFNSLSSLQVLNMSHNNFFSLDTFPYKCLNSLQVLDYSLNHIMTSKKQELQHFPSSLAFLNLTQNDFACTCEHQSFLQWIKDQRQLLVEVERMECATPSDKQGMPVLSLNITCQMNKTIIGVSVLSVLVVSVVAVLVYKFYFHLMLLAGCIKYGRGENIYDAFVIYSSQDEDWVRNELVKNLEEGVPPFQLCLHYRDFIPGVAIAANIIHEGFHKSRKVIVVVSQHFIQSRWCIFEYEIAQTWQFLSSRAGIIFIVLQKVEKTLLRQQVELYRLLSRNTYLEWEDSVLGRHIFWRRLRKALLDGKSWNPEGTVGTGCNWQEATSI
T1 sequence (Q9Y6Y9 17-160 limits assumed): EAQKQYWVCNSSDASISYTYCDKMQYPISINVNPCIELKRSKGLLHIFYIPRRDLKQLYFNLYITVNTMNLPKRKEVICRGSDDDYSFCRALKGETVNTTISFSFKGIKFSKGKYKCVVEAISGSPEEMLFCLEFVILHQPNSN
Method: The eukaryotic cells were cultured according to the methods described in previous publications. , The murine monocyte/macrophage RAW 264.7 cell line (ATCC TIB-71) and the murine monocyte/macrophage P388.D1 cell line (ATCC CCL-46) were purchased from the American Type Culture Collection (ATCC, Manassas, VA, USA). Human TLR4/NF-κB/SEAP (HEK-Blue hTLR4) and human TLR2 + TLR6/NF-κB/SEAP (HEK-Blue hTLR2/TLR6) reporter HEK293 cells were obtained from InvivoGen (San Diego, CA, USA). The passages of all TLR reporter HEK293 cells ranged from 7 to 15. All cells used in experiments were cultured under the following conditions: 5% CO2, 37 °C, and >95% humidity. RAW 264.7 and P388.D1 cells were cultured in Dulbecco’s modified Eagle’s medium (DMEM) containing 4.5 g/L glucose (GIBCO, Paisley, UK) and 5% (v/v) fetal bovine serum (FBS, GIBCO, Paisley, UK), whereas HEK-Blue hTLR4 and HEK-Blue hTLR2/TLR6 were cultured in DMEM containing 4.5 g/L glucose, 10% (v/v) FBS, 50 units/mL penicillin, and 50 μg/mL streptomycin (both from GIBCO, Paisley, UK). […]
Measurement of the activity of SEAP, secreted by the HEK-Blue cells to the media, was conducted as described previously. […] Then, the plate was incubated at 37 °C for 1 h in the dark, and the absorbance was measured at 620 nm using a Synergy H1 Hybrid microplate reader controlled by Gene5 version 2.00.18 software (BIOTEK Instruments, Winooski, VT, USA). […]

[5] = test system: FPR1; parameters: method as in number not given; settings: ref number not given; cited from earlier work
[6] = test system: TLR2/TLR6 heterodimer; settings: cited from earlier work
Text: A good example of such a multifunctional and immunomodulatory bacteriocin is the peptide BacSp222, produced by an opportunistic canine pathogen, strain 222. BacSp222 is a 50 amino acid long linear peptide encoded on a plasmid and is produced without a leader sequence, retaining a formylated N-terminal methionine.

For-MAGLLRFLLSKGRALYNWAKSHVGKVWEWLKSGATYEQIKEWIENALGWR [BacSp222]
activation of human neutrophils (ROS, NETs) [1]: cannot activate human neutrophils to produce reactive oxygen species (ROS) and induce the production of extracellular neutrophil traps (NETs)
activity against Gram-negative bacteria [2]: inactive against Gram-negative ones
reduction of LPS activity [3]: ca. 50%
stimulation of TLR4 by BacSp222 alone [4]: none of the tested BacSp222 concentrations stimulated the TLR4 receptors
activation of FPR1 [5]: cannot activate
affinity for TLR2/TLR6 heterodimer vs synthetic ligands ([6]; kinetic studies, vs ligands based on lipoteichoic acids or lipopeptides, ref number not given): lower affinity for the TLR2/TLR6 heterodimer than synthetic ligands
recognition by TLR2/TLR6 ([6]; ref our recent studies (ref 15)): recognized by the TLR2/TLR6 receptor heterodimer

— article PMC12340957, “Interactions between Lipopolysaccharide and Peptide Bacteriocin BacSp222 Influence Their Biological Activities” (ACS Infectious Diseases, 2025)
